Results as given in patent US20260356957A1, “METHODS FOR TREATMENT OF NON-SMALL CELL LUNG CANCER (NSCLC)” (Janssen Biotech, Inc., priority 2023, published 2026).
Marks after values point to notes of the source that are not given here.

Assay: MARIPOSA Phase 3, adverse events
Type: in vivo, human
Text: • 1. […] Incidence and Severity of Adverse Events (AEs) [Time Frame: Up to approximately 60 months]. Incidence and severity of treatment emergent adverse events (TEAEs) will be reported. Any adverse event occurring at or after the initial administration of study treatment through the day of last dose plus 30 days, or until the start of subsequent anticancer therapy (if earlier), is considered to be treatment emergent. • 8. Number of Participants with Clinical Laboratory Abnormalities [Time Frame: Up to approximately 60 months]. Number of participants with clinical laboratory abnormalities (serum chemistry, hematology, blood coagulation, and urine samples) will be reported. • 9. Number of Participants with Vital Signs Abnormalities [Time Frame: Up to approximately 60 months]. Number of participants with vital signs abnormalities (temperature, heart rate, respiratory rate, oxygen saturation, blood pressure) will be reported. • 10. Number of Participants with Physical Examination Abnormalities [Time Frame: Up to approximately 60 months]. Number of participants with physical examination abnormalities will be reported. • 11. […] The NSCLC-SAQ contains 7 items that assess cough, pain, dyspnea, fatigue, and poor appetite over a 7-day recall period. Each multi-item scale and individual item will be summarized using count and percent by visit. • 15. […] EORTC-QLQ-C30 is a core 30-item questionnaire for evaluating the health-related quality of life (HRQOL) of participants participating in cancer clinical studies. • 16.

[1] = AE of interest, grouped preferred terms
[2] = Grade 5 AE, deemed treatment-related
[3] = TEAE leading to discontinuations of any study agent
[4] = TEAE leading to dose reductions of any study agent

C=CC(=O)Nc1cc(Nc2nccc(-c3cn(C)c4ccccc34)n2)c(OC)cc1N(C)CCN(C)C [Osimertinib]
Venous thromboembolism, No. of days to first onset, median (range) (AE of interest): 194 (10-675) days
Any venous thromboembolism event, No. of patients (%) [1]: 39 (9) no. (%)
Rash, Duration of event, median no. of days (range) [1]: 51 (1-625) days
Rash, No. of days to first onset, median (range) [1]: 29 (1-799) days
Rash, No. of events, any grade [1]: 238
Rash, No. of patients (%) [1]: 210 (49) no. (%)
Anemia (AE, All grades): 91 (21) no. (%)
Asthenia (AE, All grades): 46 (11) no. (%)
COVID-19 (AE, All grades): 103 (24) no. (%)
Constipation (AE, All grades): 55 (13) no. (%)
Cough (AE, All grades): 88 (21) no. (%)
Decreased appetite (AE, All grades): 76 (18) no. (%)
Dermatitis acneiform (AE, All grades): 55 (13) no. (%)
Diarrhea (AE, All grades): 190 (44) no. (%)
Dry skin (AE, All grades): 60 (14) no. (%)
Dyspnea (AE, All grades): 68 (16) no. (%)
Fatigue (AE, All grades): 42 (10) no. (%)
Hypoalbuminemia (AE, All grades): 26 (6) no. (%)
Hypocalcemia (AE, All grades): 35 (8) no. (%)
Increased alanine aminotransferase (AE, All grades): 57 (13) no. (%)
Increased aspartate aminotransferase (AE, All grades): 58 (14) no. (%)
Infusion-related reaction (AE, All grades): 0 no. (%)
Leukopenia (AE, All grades): 66 (15) no. (%)
Muscle spasms (AE, All grades): 32 (7) no. (%)
Nausea (AE, All grades): 58 (14) no. (%)
Pain in extremity (AE, All grades): 22 (5) no. (%)
Paronychia (AE, All grades): 121 (28) no. (%)
Peripheral edema (AE, All grades): 24 (6) no. (%)
Pruritus (AE, All grades): 73 (17) no. (%)
Pulmonary embolism (AE, All grades): 20 (5) no. (%)
Rash (AE, All grades): 131 (31) no. (%)
Stomatitis (AE, All grades): 90 (21) no. (%)
Thrombocytopenia (AE, All grades): 84 (20) no. (%)
Anemia (AE, Grade ≥3): 7 (2) no. (%)
Asthenia (AE, Grade ≥3): 4 (1) no. (%)
COVID-19 (AE, Grade ≥3): 9 (2) no. (%)
Constipation (AE, Grade ≥3): 0 no. (%)
Cough (AE, Grade ≥3): 0 no. (%)
Decreased appetite (AE, Grade ≥3): 6 (1) no. (%)
Dermatitis acneiform (AE, Grade ≥3): 0 no. (%)
Diarrhea (AE, Grade ≥3): 3 (1) no. (%)
Dry skin (AE, Grade ≥3): 1 (0.2) no. (%)
Dyspnea (AE, Grade ≥3): 17 (4) no. (%)
Fatigue (AE, Grade ≥3): 4 (1) no. (%)
Hypoalbuminemia (AE, Grade ≥3): 0 no. (%)
Hypocalcemia (AE, Grade ≥3): 0 no. (%)
Increased alanine aminotransferase (AE, Grade ≥3): 8 (2) no. (%)
Increased aspartate aminotransferase (AE, Grade ≥3): 5 (1) no. (%)
Infusion-related reaction (AE, Grade ≥3): 0 no. (%)
Leukopenia (AE, Grade ≥3): 0 no. (%)
Muscle spasms (AE, Grade ≥3): 0 no. (%)
Nausea (AE, Grade ≥3): 1 (0.2) no. (%)
Pain in extremity (AE, Grade ≥3): 0 no. (%)
Paronychia (AE, Grade ≥3): 2 (0.5) no. (%)
Peripheral edema (AE, Grade ≥3): 0 no. (%)
Pruritus (AE, Grade ≥3): 1 (0.2) no. (%)
Pulmonary embolism (AE, Grade ≥3): 10 (2) no. (%)
Rash (AE, Grade ≥3): 3 (1) no. (%)
Stomatitis (AE, Grade ≥3): 1 (0.2) no. (%)
Thrombocytopenia (AE, Grade ≥3): 5 (1) no. (%)
Acinetobacter sepsis (Grade 5 AE): 0 no. (%)
Acute respiratory distress syndrome (Grade 5 AE): 0 no. (%)
Arteriosclerosis coronary artery (Grade 5 AE): 0 no. (%)
COVID-19 (Grade 5 AE): 3 (1) no. (%)
COVID-19 pneumonia (Grade 5 AE): 0 no. (%)
Cardiac failure (Grade 5 AE): 1 (0.2) no. (%)
Cardiopulmonary failure (Grade 5 AE): 0 no. (%)
Cerebral hemorrhage (Grade 5 AE): 1 (0.2) no. (%)
Cerebral infarction (Grade 5 AE): 0 no. (%)
Cerebrovascular accident (Grade 5 AE): 1 (0.2) no. (%)
Circulatory collapse (Grade 5 AE): 0 no. (%)
Death (Grade 5 AE): 2 (0.5) no. (%)
Dyspnea (Grade 5 AE): 3 (1) no. (%)
Hemoptysis (Grade 5 AE): 1 (0.2) no. (%)
Ischemic cerebral infarction (Grade 5 AE): 0 no. (%)
Ketoacidosis (Grade 5 AE): 1 (0.2) no. (%)
Lower respiratory tract infection (Grade 5 AE): 1 (0.2) no. (%)
Metabolic acidosis (Grade 5 AE): 1 (0.2) no. (%)
Myocardial infarction (Grade 5 AE): 0 no. (%)
Myocardial rupture (Grade 5 AE): 0 no. (%)
Pericardial effusion (Grade 5 AE): 1 (0.2) no. (%)
Pleural effusion (Grade 5 AE): 1 (0.2) no. (%)
Pneumonia (Grade 5 AE): 4 (1) no. (%)
Pneumonia aspiration (Grade 5 AE): 1 (0.2) no. (%)
Pulmonary embolism (Grade 5 AE): 2 (0.5) no. (%)
Respiratory failure (Grade 5 AE): 2 (0.5) no. (%)
Respiratory tract infection (Grade 5 AE): 1 (0.2) no. (%)
Sepsis (Grade 5 AE): 1 (0.2) no. (%)
Septic shock (Grade 5 AE): 1 (0.2) no. (%)
Sudden death (Grade 5 AE): 1 (0.2) no. (%)
Urosepsis (Grade 5 AE): 0 no. (%)
Coronary artery disease [2]: 0 no. (%)
Interstitial lung disease [2]: 2 (0.5)§ no. (%)
Pneumonitis [2]: 0 no. (%)
Asthenia [3]: 1 (0.2) no. (%)
Dermatitis acneiform [3]: 0 no. (%)
Hypoalbuminemia [3]: 0 no. (%)
Infusion related reaction [3]: 0 no. (%)
Interstitial lung disease [3]: 4 (1) no. (%)
Paronychia [3]: 0 no. (%)
Peripheral edema [3]: 0 no. (%)
Pneumonia [3]: 3 (1) no. (%)
Pneumonitis [3]: 7 (2) no. (%)
Pulmonary embolism [3]: 2 (0.5) no. (%)
Rash [3]: 0 no. (%)
Dermatitis acneiform [4]: 0 no. (%)
Folliculitis [4]: 0 no. (%)
Hypoalbuminemia [4]: 0 no. (%)
Increased alanine aminotransferase [4]: 0 no. (%)
Increased aspartate aminotransferase [4]: 0 no. (%)
Mucosal inflammation [4]: 0 no. (%)
Neuropathy peripheral [4]: 0 no. (%)
Paresthesia [4]: 0 no. (%)
Paronychia [4]: 1 (0.2) no. (%)
Peripheral edema [4]: 0 no. (%)
Peripheral sensory neuropathy [4]: 0 no. (%)
Rash [4]: 2 (0.5) no. (%)
Rash maculo-papular [4]: 0 no. (%)
Rash pustular [4]: 0 no. (%)
